Here are results for 24 compounds from patent US12685726B2, “Sulfoximines as inhibitors of NaV1.8” (Gruenenthal GmbH, priority 2022, dated 2026).

Where only a bound is given, the exact number is not on record here.

One may read the IC50 as the point on the concentration scale where inhibition reaches its midpoint.

This assay has as its target T1, human NaV 1.8 (Homo sapiens, UniProt Q9Y5Y9).
T1 construct: expressed in transfected cells; host or cells: HEK (recombinant cell line)
Kind of assay: Automated whole-cell patch clamp (Qube384) voltage-clamp recordings of sodium currents in HEK-NaV1.8 cell line. The following applies: read-out: Potency category (human NaV 1.8 IC50). It is filed as cell-based. The method, boiled down:
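HEK cells expressing NaV1.8 with b3, whole-cell automated voltage clamp at room temperature or 19° C.; CsF-based internal, pH 7.4 external. State-dependent (−120 mV, V1/2 4 s, −10 mV test pulses) and 10/20 Hz 40-pulse protocols; ~12 min compound, vehicle-corrected, IC50 by 4-parameter logistic fit.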
(In general: Patch clamp records ionic current or voltage across a cell membrane.)

T1 sequence (Q9Y5Y9 whole entry): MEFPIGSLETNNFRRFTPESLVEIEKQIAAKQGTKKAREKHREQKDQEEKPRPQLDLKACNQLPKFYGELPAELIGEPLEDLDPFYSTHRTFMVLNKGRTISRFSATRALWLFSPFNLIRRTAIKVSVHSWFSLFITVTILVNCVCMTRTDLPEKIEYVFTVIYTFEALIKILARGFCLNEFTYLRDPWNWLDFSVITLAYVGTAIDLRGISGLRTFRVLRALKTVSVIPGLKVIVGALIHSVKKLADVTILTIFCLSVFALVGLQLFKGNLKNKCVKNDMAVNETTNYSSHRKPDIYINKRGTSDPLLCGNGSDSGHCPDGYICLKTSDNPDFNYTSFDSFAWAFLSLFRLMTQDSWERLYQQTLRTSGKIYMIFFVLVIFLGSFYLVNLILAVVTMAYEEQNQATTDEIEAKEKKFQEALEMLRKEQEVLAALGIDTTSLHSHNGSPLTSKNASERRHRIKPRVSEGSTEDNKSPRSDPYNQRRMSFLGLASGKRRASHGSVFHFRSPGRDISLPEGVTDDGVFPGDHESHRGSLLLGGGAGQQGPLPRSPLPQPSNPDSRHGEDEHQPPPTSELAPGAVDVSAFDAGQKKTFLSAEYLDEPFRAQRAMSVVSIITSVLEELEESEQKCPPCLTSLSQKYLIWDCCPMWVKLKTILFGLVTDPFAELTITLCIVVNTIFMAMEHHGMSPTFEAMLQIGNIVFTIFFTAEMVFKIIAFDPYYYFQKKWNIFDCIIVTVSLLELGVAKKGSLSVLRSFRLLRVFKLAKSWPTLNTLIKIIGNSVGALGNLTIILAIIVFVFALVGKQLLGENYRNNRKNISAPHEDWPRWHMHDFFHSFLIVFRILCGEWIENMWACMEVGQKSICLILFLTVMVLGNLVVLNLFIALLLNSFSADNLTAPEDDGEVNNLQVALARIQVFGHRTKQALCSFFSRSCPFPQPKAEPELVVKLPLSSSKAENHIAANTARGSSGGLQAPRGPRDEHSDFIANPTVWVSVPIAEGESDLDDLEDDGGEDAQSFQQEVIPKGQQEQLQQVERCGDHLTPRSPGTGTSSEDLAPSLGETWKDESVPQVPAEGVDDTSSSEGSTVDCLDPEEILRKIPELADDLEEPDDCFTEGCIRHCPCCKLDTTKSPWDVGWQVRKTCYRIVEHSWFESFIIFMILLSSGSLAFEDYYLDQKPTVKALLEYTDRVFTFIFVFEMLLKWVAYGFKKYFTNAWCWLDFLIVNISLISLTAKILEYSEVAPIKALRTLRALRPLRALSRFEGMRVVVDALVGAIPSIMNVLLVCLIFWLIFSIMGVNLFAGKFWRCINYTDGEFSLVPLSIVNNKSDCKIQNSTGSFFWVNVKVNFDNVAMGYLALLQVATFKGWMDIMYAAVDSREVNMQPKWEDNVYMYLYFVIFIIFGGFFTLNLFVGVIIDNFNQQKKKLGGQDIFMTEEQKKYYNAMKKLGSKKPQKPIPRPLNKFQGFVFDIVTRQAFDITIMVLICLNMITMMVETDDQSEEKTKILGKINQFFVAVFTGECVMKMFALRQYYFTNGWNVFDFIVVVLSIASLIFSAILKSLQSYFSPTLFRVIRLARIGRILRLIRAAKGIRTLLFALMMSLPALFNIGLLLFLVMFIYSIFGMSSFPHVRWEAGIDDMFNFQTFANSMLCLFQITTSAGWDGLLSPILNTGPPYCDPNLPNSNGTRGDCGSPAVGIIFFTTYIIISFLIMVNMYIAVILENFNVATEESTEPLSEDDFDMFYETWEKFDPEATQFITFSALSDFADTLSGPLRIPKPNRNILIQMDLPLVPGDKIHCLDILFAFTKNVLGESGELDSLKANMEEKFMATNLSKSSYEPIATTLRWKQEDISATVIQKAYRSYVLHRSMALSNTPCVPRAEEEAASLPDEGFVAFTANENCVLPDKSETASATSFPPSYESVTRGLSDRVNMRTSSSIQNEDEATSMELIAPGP

Regarding `CC1(Cn2nc(C3CC3)c(C(F)(F)F)c2C(=O)Nc2cccc(S(C)(=N)=O)c2)CC(F)(F)C1` (single isomer, unassigned) [Example 45a, 3-cyclopropyl-1-((3,3-difluoro-1-methylcyclobutyl)methyl)-N-(3-(S-methylsulfonimidoyl)phenyl)-4-(trifluoromethyl)-1H-pyrazole-5-carboxamide], the half-inhibitory concentration (IC50) is ≤ 100 nM.

With `CC1(Cn2nc(C3CCCC3)c(C(F)(F)F)c2C(=O)Nc2ccnc(S(C)(=N)=O)c2)CC(F)(F)C1` (single isomer, unassigned) [Example 59a, 3-Cyclopentyl-1-((3,3-difluoro-1-methylcyclobutyl)methyl)-N-(2-(S-methylsulfonimidoyl)pyridin-4-yl)-4-(trifluoromethyl)-1H-pyrazole-5-carboxamide], the IC50 was ≤ 100 nM.

On to `CS(=N)(=O)c1cccc(NC(=O)c2c(C(F)(F)F)c(C34CC(C3)C4)nn2CC2C[C@@H]2C(F)F)c1` (stereo in doubt) [Example 139, 3-(Bicyclo[1.1.1]pentan-1-yl)-1-(((trans)-2-(difluoromethyl)cyclopropyl)methyl)-N-(3-(S-methylsulfonimidoyl)phenyl)-4-(trifluoromethyl)-1H-pyrazole-5-carboxamide], for which the IC50 is ≤ 100 nM.

As to `CC1(Cn2nc(C3(F)CC3)c(C(F)(F)F)c2C(=O)Nc2cccc(S(=N)(=O)C(F)F)c2)CC(F)(F)C1` (single isomer, unassigned) [Example 130a, 1-((3,3-Difluoro-1-methylcyclobutyl)methyl)-N-(3-(S-(difluoromethyl)sulfonimidoyl)phenyl)-3-(1-fluorocyclopropyl)-4-(trifluoromethyl)-1H-pyrazole-5-carboxamide], the half-inhibitory concentration (IC50) was ≤ 100 nM.

With `CC1(Cn2nc(C3CC3)c(C(F)(F)F)c2C(=O)Nc2ccc(F)c(S(C)(=N)=O)c2)CC(F)(F)C1` (single isomer, unassigned) [Example 132a, 3-Cyclopropyl-1-((3,3-difluoro-1-methylcyclobutyl)methyl)-N-(4-fluoro-3-(S-methylsulfonimidoyl)phenyl)-4-(trifluoromethyl)-1H-pyrazole-5-carboxamide], the IC50 is ≤ 100 nM.

As for `CN=S(C)(=O)c1cc(NC(=O)c2c(C)c(C(C)(F)F)nn2CC2(C)CC(F)(F)C2)ccn1` (single isomer, unassigned) [Example 34b, 1-((3,3-Difluoro-1-methylcyclobutyl)methyl)-3-(1,1-difluoroethyl)-N-(2-(N,S-dimethylsulfonimidoyl)pyridin-4-yl)-4-methyl-1H-pyrazole-5-carboxamide], the IC50 was ≤ 100 nM.

Regarding `CS(=N)(=O)c1cc(NC(=O)c2c(C(F)(F)F)c(C3CC3)nn2CC2CCC23CNC3)ccn1` (single isomer, unassigned) [Example 153d, 1-((2-Azaspiro[3.3]heptan-5-yl)methyl)-3-cyclopropyl-N-(2-(S-methylsulfonimidoyl)pyridin-4-yl)-4-(trifluoromethyl)-1H-pyrazole-5-carboxamide], the IC50 fell in the range of 1000 to 10000 nM.

Consider `CC1(Cn2nc(C34CC(C3)C4)c(C(F)F)c2C(=O)Nc2ccnc(S(C)(=N)=O)c2)CC(F)(F)C1` (single isomer, unassigned) [Example 137a, 3-(Bicyclo[1.1.1]pentan-1-yl)-1-((3,3-difluoro-1-methylcyclobutyl)methyl)-4-(difluoromethyl)-N-(2-(S-methylsulfonimidoyl)pyridin-4-yl)-1H-pyrazole-5-carboxamide], for which the IC50 was ≤ 100 nM.

In the case of `Cc1c(C(C)(F)F)nn(CC2CCC(F)(F)C2)c1C(=O)Nc1ccnc(S(C)(=N)=O)c1` (stereo not drawn) [Example 4, 1-((3,3-Difluorocyclopentyl)methyl)-3-(1,1-difluoroethyl)-4-methyl-N-(2-(S-methylsulfonimidoyl)pyridin-4-yl)-1H-pyrazole-5-carboxamide], the IC50 is ≤ 100 nM.

`CS(=N)(=O)c1cc(NC(=O)c2c(C(F)(F)F)c(C3CC3)nn2CC2CCC23CNC3)ccn1` (single isomer, unassigned) [Example 153a, 1-((2-Azaspiro[3.3]heptan-5-yl)methyl)-3-cyclopropyl-N-(2-(S-methylsulfonimidoyl)pyridin-4-yl)-4-(trifluoromethyl)-1H-pyrazole-5-carboxamide]: the 50% inhibitory concentration (IC50) lay in the range of 1000 to 10000 nM.

Regarding `Cc1c(C(C)(F)F)nn(CC2(C)CC(F)(F)C2)c1C(=O)Nc1ccnc(S(C)(=N)=O)c1` (single isomer, unassigned) [Example 5b, 1-((3,3-difluoro-1-methylcyclobutyl)methyl)-3-(1,1-difluoroethyl)-4-methyl-N-(2-(S-methylsulfonimidoyl)pyridin-4-yl)-1H-pyrazole-5-carboxamide], the IC50 was ≤ 100 nM.

`CS(=N)(=O)c1cc(NC(=O)c2c(C(F)(F)F)c(C3CC3)nn2CC23CC(F)(C2)C3)ccn1` (single isomer, unassigned) [Example 25a, 3-cyclopropyl-1-((3-fluorobicyclo[1.1.1]pentan-1-yl)methyl)-N-(2-(S-methylsulfonimidoyl)pyridin-4-yl)-4-(trifluoromethyl)-1H-pyrazole-5-carboxamide]: the IC50 is ≤ 100 nM.

Take `CC1(Cn2nc(C3CC3)c(C(F)(F)F)c2C(=O)Nc2ccnc(S(C)(=N)=O)c2)CC(F)(F)C1` (single isomer, unassigned) [Example 1a, 3-cyclopropyl-1-((3,3-difluoro-1-methylcyclobutyl)methyl)-N-(2-(S-methylsulfonimidoyl)pyridin-4-yl)-4-(trifluoromethyl)-1H-pyrazole-5-carboxamide]: the half-maximal inhibitory concentration (IC50) was ≤ 100 nM.

Take `CS(=N)(=O)c1cc(NC(=O)c2c(C(F)(F)F)c(C3CC3)nn2CC2C(F)(F)C23CCC3)ccn1` (single isomer, unassigned) [Example 136a, 3-Cyclopropyl-1-((2,2-difluorospiro[2.3]hexan-1-yl)methyl)-N-(2-(S-methylsulfonimidoyl)pyridin-4-yl)-4-(trifluoromethyl)-1H-pyrazole-5-carboxamide]: the IC50 was ≤ 100 nM.

`CC1(Cn2nc(C3(F)CC3)c(C(F)(F)F)c2C(=O)Nc2cccc([S@@](C)(=O)=NC(=O)CO)c2)CC(F)(F)C1` [Example 151a]: the concentration for half-maximal inhibition (IC50) was ≤ 100 nM.

With `CS(=N)(=O)c1cc(NC(=O)c2c(C(F)(F)F)c(C3CC3)nn2CC23CC(CC2(F)F)C3)ccn1` (single isomer, unassigned) [Example 103b, 3-cyclopropyl-1-((2,2-difluorobicyclo[2.1.1]hexan-1-yl)methyl)-N-(2-(S-methylsulfonimidoyl)pyridin-4-yl)-4-(trifluoromethyl)-1H-pyrazole-5-carboxamide], the half-inhibitory concentration (IC50) is ≤ 100 nM.

Consider `CC1(Cn2nc(C3(F)CC3)c(C(F)(F)F)c2C(=O)Nc2cccc(S(=N)(=O)C(F)(F)F)c2)CC(F)(F)C1` (stereo not drawn) [Example 131, 1-((3,3-Difluoro-1-methylcyclobutyl)methyl)-3-(1-fluorocyclopropyl)-4-(trifluoromethyl)-N-(3-(S-(trifluoromethyl)sulfonimidoyl)phenyl)-1H-pyrazole-5-carboxamide], for which the IC50 was ≤ 100 nM.

As for `C[S@](=N)(=O)c1cc(NC(=O)c2c(C(F)(F)F)c(C3CC3)nn2C[C@]2(C)C[C@@H](C(F)(F)F)C2)ccn1` (single isomer, unassigned) [Example 86d, 3-cyclopropyl-1-(((cis)-1-methyl-3-(trifluoromethyl)cyclobutyl)methyl)-N-(2-(S-methylsulfonimidoyl)pyridin-4-yl)-4-(trifluoromethyl)-1H-pyrazole-5-carboxamide], the IC50 is ≤ 100 nM.

For the compound `CC1(Cn2nc(C3CC3)c(C(F)(F)F)c2C(=O)Nc2ccnc(S(C)(=N)=O)c2)CCC(F)(F)C1` (single isomer, unassigned) [Example 29b, 3-Cyclopropyl-1-((3,3-difluoro-1-methylcyclopentyl)methyl)-N-(2-(S-methylsulfonimidoyl)pyridin-4-yl)-4-(trifluoromethyl)-1H-pyrazole-5-carboxamide], the IC50 is ≤ 100 nM.

Take `CC1(Cn2nc(C(C)(F)F)c(C(F)(F)F)c2C(=O)Nc2ccnc(S(C)(=N)=O)c2)CC(F)(F)C1` (single isomer, unassigned) [Example 75a, 1-((3,3-difluoro-1-methylcyclobutyl)methyl)-3-(1,1-difluoroethyl)-N-(2-(S-methylsulfonimidoyl)pyridin-4-yl)-4-(trifluoromethyl)-1H-pyrazole-5-carboxamide]: the half-maximal inhibitory concentration (IC50) was ≤ 100 nM.

Turning to `CC1(Cn2nc(C3CC3)c(C(F)(F)F)c2C(=O)Nc2cnnc(S(C)(=N)=O)c2)CC(F)(F)C1` (single isomer, unassigned) [Example 47a, 3-cyclopropyl-1-((3,3-difluoro-1-methylcyclobutyl)methyl)-N-(6-(S-methylsulfonimidoyl)pyridazin-4-yl)-4-(trifluoromethyl)-1H-pyrazole-5-carboxamide], the IC50 is ≤ 100 nM.

With `CC1(Cn2nc(C3CCCC3)c(C(F)(F)F)c2C(=O)Nc2ccnc(S(C)(=N)=O)c2)CC(F)(F)C1` (single isomer, unassigned) [Example 59b, 3-Cyclopentyl-1-((3,3-difluoro-1-methylcyclobutyl)methyl)-N-(2-(S-methylsulfonimidoyl)pyridin-4-yl)-4-(trifluoromethyl)-1H-pyrazole-5-carboxamide], the IC50 was ≤ 100 nM.

For the compound `C[S@](=N)(=O)c1cc(NC(=O)c2c(C(F)(F)F)c(C3CC3)nn2C[C@@H]2C(F)(F)C23CC3)ccn1` (single isomer, unassigned) [Example 79d, 3-cyclopropyl-1-((2,2-difluorospiro[2.2]pentan-1-yl)methyl)-N-(2-(S-methylsulfonimidoyl)pyridin-4-yl)-4-(trifluoromethyl)-1H-pyrazole-5-carboxamide], the half-inhibitory concentration (IC50) was ≤ 100 nM.

In the case of `CC1(Cn2nc(C3(C)CC3)c(C(F)(F)F)c2C(=O)Nc2ccnc(S(C)(=N)=O)c2)CC(F)(F)C1` (single isomer, unassigned) [Example 69a, 1-((3,3-difluoro-1-methylcyclobutyl)methyl)-3-(1-methylcyclopropyl)-N-(2-(S-methylsulfonimidoyl)pyridin-4-yl)-4-(trifluoromethyl)-1H-pyrazole-5-carboxamide], the concentration for half-maximal inhibition (IC50) was ≤ 100 nM.
